Measurements as given in US4831026A, “2-oxa-isocephem compounds, compositions containing same and processes of using” (Otsuka Pharmaceutical Co., Ltd., priority 1985, dated 1989).
Where two headings read alike, the source gives them in different places.

Experiments:
P. mirabilis 1287 = assay: Antimicrobial activity test: MIC by the agar plate dilution method, P. mirabilis 1287; type: cell-based
Protocol: (§1) In order to investigate the in vitro activity of the under-mentioned compounds against various bacteria, the minimal inhibitory concentration (MIC) values were determined by the agar plate dilution method [see Chemotherapy, 22, 1126-1128 (1974)].
(§2) Each test inoculum was adjusted to 1×10^6 cells/ml (O.D., 600 mμ: 0.07-0.16).

P. aeruginosa NCTC-10490 = assay: Antimicrobial activity test: MIC by the agar plate dilution method, P. aeruginosa NCTC-10490; type: cell-based; details: inoculum 1×10^6 cells/ml
Protocol: as §1, §2

S. aureus FDA-209-p = assay: Antimicrobial activity test: MIC by the agar plate dilution method, S. aureus FDA-209-p; type: cell-based, Staphylococcus aureus; details: inoculum 1×10^6 cells/ml
Protocol: as §1, §2

S. marcescens IFO-12648 = assay: Antimicrobial activity test: MIC by the agar plate dilution method, S. marcescens IFO-12648; type: cell-based
Protocol: as §1, §2

M. morganii ATCC-25830 = assay: Antimicrobial activity test: MIC by the agar plate dilution method, M. morganii ATCC-25830; type: cell-based; details: inoculum 1×10^6 cells/ml
Protocol: as §1, §2

K. pneumoniae NCTC-9632 = assay: Antimicrobial activity test: MIC by the agar plate dilution method, K. pneumoniae NCTC-9632; type: cell-based; details: inoculum 1×10^6 cells/ml
Protocol: as §1, §2

E. coli No. 29 = assay: Antimicrobial activity test: MIC by the agar plate dilution method, E. coli No. 29; type: cell-based
Protocol: as §1, §2

[1] = P. mirabilis 1287, inoculum 1×10^6 cells/ml
[2] = E. coli No. 29, inoculum 1×10^6 cells/ml
[3] = S. marcescens IFO-12648, inoculum 1×10^6 cells/ml

Substance	MIC (P. mirabilis 1287; [1])	MIC (P. aeruginosa NCTC-10490)	MIC (S. aureus FDA-209-p)	MIC (S. marcescens IFO-12648)	MIC (M. morganii ATCC-25830)	MIC (K. pneumoniae NCTC-9632)	MIC (E. coli No. 29; [2])	MIC (S. marcescens IFO-12648; [3])	MIC (E. coli No. 29)	MIC (P. mirabilis 1287)
7-[2-(2-Aminothiazol-4-yl)-2-[(2-butenyl)oxyimino]acetamido]-3-[(1,3,4-thiadiazol-2-yl)thiomethyl]-Δ^3 -O-2-isocephem-4-carboxylic acid trifluoroacetate (syn-isomer) [Example 38]	0.2 µg/mL	1.56 µg/mL	0.39 µg/mL	0.78 µg/mL	0.39 µg/mL	0.2 µg/mL	0.1 µg/mL	–	–	–
7-[2-(2-Aminothiazol-4-yl)-2-[(3-butenyl)oxyimino]acetamido]-3-[(1,3,4-thiadiazol-2-yl)thiomethyl-]-Δ^3 -O-2-isocephem-4-carboxylic acid trifluoroacetate (syn-isomer) [Example 40]	6.25 µg/mL	25 µg/mL	6.25 µg/mL	–	3.13 µg/mL	3.13 µg/mL	–	12.5 µg/mL	3.13 µg/mL	–
7-[2-(2-Chloroacetamidothiazol-4-yl)-2-allyloxyiminoacetamido]-3-[(1,3,4-thiadiazol-2-yl)thiomethyl]-Δ^3 -O-2-isocephem-4-carboxylic acid (syn-isomer) [Example 15]	≤ 0.025 µg/mL	0.78 µg/mL	0.39 µg/mL	–	≤ 0.025 µg/mL	0.1 µg/mL	≤ 0.025 µg/mL	0.1 µg/mL	–	–
7-[2-(2-Chloroacetamidothiazol-4-yl)-2-cyclopentyloxyiminoacetamido]-3-[(1,3,4-thiadiazol-2-yl)thiomethyl]-Δ^3 -O-2-isocephem-4-carboxylic acid (syn-isomer) [Example 26]	≤ 0.025 µg/mL	0.39 µg/mL	0.2 µg/mL	0.39 µg/mL	0.05 µg/mL	0.2 µg/mL	0.05 µg/mL	–	–	–
7-[2-(2-Chloroacetamidothiazol-4-yl)-2-methoxyiminoacetamido]-3-[(1,4,5,6-tetrahydro-4-methyl-5,6-dioxo-1,2,4-triazin-3-yl)thiomethyl]-Δ^3 -O-2-isocephem-4-carboxylic acid (syn-isomer) [Example 17]	≤ 0.025 µg/mL	6.25 µg/mL	0.2 µg/mL	–	≤ 0.025 µg/mL	≤ 0.025 µg/mL	≤ 0.025 µg/mL	≤ 0.025 µg/mL	–	–
7-[2-(2-Chloroacetamidothiazol-4-yl)-2-methoxyiminoacetamido]-3-[(carbamoyloxy)methyl]-Δ^3 -O-2-isocephem-4-carboxylic acid (syn-isomer) [Example 8]	0.05 µg/mL	1.56 µg/mL	0.78 µg/mL	0.39 µg/mL	0.1 µg/mL	0.2 µg/mL	0.2 µg/mL	–	–	–
7-[2-(2-Formamidothiazol-4-yl)-2-ethoxyiminoacetamido]-3-[(1,3,4-thiadiazol-2-yl)thiomethyl-]-Δ^3 -O-2-isocephem-4-carboxylic acid (syn-isomer) [Example 31]	≤ 0.025 µg/mL	25 µg/mL	0.39 µg/mL	0.39 µg/mL	0.05 µg/mL	0.1 µg/mL	≤ 0.025 µg/mL	–	–	–
7-[2-(2-Trichloroacetamidothiazol-4-yl)-2-methoxyiminoacetamido]-3-[(carbamoyloxy)methyl]-Δ^3 -O-2-isocephem-4-carboxylic acid (syn-isomer) [Example 7]	≤ 0.025 µg/mL	0.78 µg/mL	0.78 µg/mL	0.39 µg/mL	≤ 0.025 µg/mL	0.2 µg/mL	0.1 µg/mL	–	–	–
7-[2-(Thiazol-4-yl)-2-carboxymethoxyiminoacetamido]-Δ^3 -O-2-isocephem-4-carboxylic acid (syn-isomer) [No. 6]	≤ 0.025 µg/mL	12.5 µg/mL	0.39 µg/mL	–	0.05 µg/mL	0.2 µg/mL	0.1 µg/mL	0.2 µg/mL	–	–
Benzhydryl 7-[2-(2-formamidothiazol-4-yl)-2-methylthiomethoxyiminoacetamido]-3-[(1,3,4-thiadiazol-2-yl)thiomethyl]-Δ^3 -O-2-isocephem-4-carboxylate (syn-isomer) [Example 44]	–	3.13 µg/mL	0.39 µg/mL	1.56 µg/mL	0.78 µg/mL	0.39 µg/mL	–	–	0.2 µg/mL	0.2 µg/mL
Benzhydryl 7-[2-(2-tritylaminothiazol-4-yl)-2-(2fluoroethoxy)iminoacetamido-]-3-[(1,3,4-thiadiazol-2-yl)thiomethyl]-Δ^3 -O-2-isocephem-4-carboxylate (syn-isomer) [Example 48]	≤ 0.025 µg/mL	6.25 µg/mL	0.78 µg/mL	0.39 µg/mL	≤ 0.025 µg/mL	0.2 µg/mL	≤ 0.025 µg/mL	–	–	–
Benzhydryl 7-[2-(2-tritylaminothiazol-4-yl)-2-[(1-tritylpyrazol-3-yl)methoxyiminoacetamido]-3-[(1,3,4-thiadiazol-2-yl)thiomethyl]-Δ^3 -O-2-isocephem-4-carboxylate (syn-isomer) [Example 23]	≤ 0.025 µg/mL	12.5 µg/mL	6.25 µg/mL	0.39 µg/mL	0.1 µg/mL	0.1 µg/mL	0.2 µg/mL	–	–	–
Benzhydryl 7-[2-(2-tritylaminothiazol-4-yl)-2-[(2-butenyl)oxyimino]acetamido]-3-[(1,3,4-thiadiazol-2-yl)thiomethyl]-Δ^3 -O-2-isocephem-4-carboxylate (syn-isomer) [Example 37]	0.2 µg/mL	1.56 µg/mL	0.78 µg/mL	–	0.78 µg/mL	0.39 µg/mL	0.2 µg/mL	1.56 µg/mL	–	–
Benzhydryl 7-[2-(2-tritylaminothiazol-4-yl)-2-cyclopropylmethyloxyiminoacetamido-]-3- (1,3,4-thiadiazol-2-yl)thiomethyl]-Δ^3 -O-2-isocephem-4-carboxylate (syn-isomer) [Example 35]	0.2 µg/mL	0.39 µg/mL	0.2 µg/mL	0.39 µg/mL	0.39 µg/mL	0.2 µg/mL	0.2 µg/mL	–	–	–
Benzhydryl 7-[2-(2-tritylaminothiazol-4-yl)-2-propargyloxyiminoacetamido]-3-[(1,3,4-thiadiazol-2-yl)thiomethyl]-Δ^3 -O-2-isocephem-4-carboxylate (syn-isomer) [Example 21]	≤ 0.025 µg/mL	3.13 µg/mL	3.13 µg/mL	0.39 µg/mL	0.05 µg/mL	0.2 µg/mL	0.1 µg/mL	–	–	–
Benzhydryl 7-[2-(2-tritylaminothiazol-4-yl)-2cyanomethyloxyiminoacetamido-]-3-[(1,3,4-thiadiazol-2-yl)thiomethyl]-Δ^3 -O-2-isocephem-4-carboxylate (syn-isomer) [Example 41]	0.2 µg/mL	0.78 µg/mL	0.39 µg/mL	–	0.78 µg/mL	0.39 µg/mL	0.2 µg/mL	1.56 µg/mL	–	–
Benzhydryl (6S,7S)-7-[2-(2-aminothiazol-4-yl)-2-methoxyiminoacetamido]-3-[(1,3,4-thiadiazol-2-yl)thiomethyl]-Δ^3 -O-2-isocephem-4-carboxylate (syn-isomer) [Example 59]	≤ 0.025 µg/mL	25 µg/mL	0.39 µg/mL	0.39 µg/mL	≤ 0.025 µg/mL	≤ 0.025 µg/mL	≤ 0.025 µg/mL	–	–	–
Benzyl7-[2-(2-aminothiazol-4-yl)-2-methoxyiminoacetamido]-3-[(carbamoyloxy)methyl]-Δ^3 -O-2-isocephem-4-carboxylate (syn-isomer) [Example 3]	≤ 0.025 µg/mL	1.56 µg/mL	0.39 µg/mL	0.39 µg/mL	≤ 0.025 µg/mL	0.39 µg/mL	0.2 µg/mL	–	–	–
Benzyl 7-[2-(2-chloroacetamidothiazol-4-yl)-2-(tert-butoxycarbonylmethoxyimino)acetamido]-3-[(1,3,4-thiadiazol-2-yl)thiomethyl]-Δ^3 -O-2-isocephem-4carboxylate (syn-isomer) [Example 2]	≤ 0.025 µg/mL	3.13 µg/mL	0.78 µg/mL	–	≤ 0.025 µg/mL	0.2 µg/mL	0.05 µg/mL	0.2 µg/mL	–	–
